The values below come from publication PMC8466754, “Esterase-Sensitive Prodrugs of a Potent Bisubstrate Inhibitor of Nicotinamide N-Methyltransferase (NNMT) Display Cellular Activity” (Biomolecules, 2021).

Data set [1] is described as follows: Ester stability assay in buffer (RP-HPLC). It counts as physicochemical. The settings on record: for percentage of compound peak area present after 16 h of incubation, PBS: PBS buffer pH 7.4, 16 h; for percentage of compound peak area present after 16 h of incubation, PBS / percentage of compound peak area present after 16 h of incubation, Tris: room temperature, 1 mM compound; for hydrolytic stability in buffer (in words): PBS pH 7.4 and Tris pH 8.4, over 16 h; for percentage of compound peak area present after 16 h of incubation, Tris: Tris buffer pH 8.4, 16 h. Here is the method:
The prodrugs were evaluated for their stability in both PBS buffer at pH 7.4 and Tris buffer at pH 8.4. The compounds were dissolved in DMSO at a concentration of 40 mM and diluted with the respective buffer to a final concentration of 1 mM. Compounds were tested directly (t0) and subsequently every 2 h over a time period of 16 h by HPLC. Compounds were eluted from a Dr. Maisch ReproSil-Pur C18 column (4.6 × 250 mm, 10 μm particle size, Dr. Maisch, Ammerbuch-Entringen, Germany) with the following solvent system at a flow rate of 0.5 mL/min: solvent A, 0.1% trifluoroacetic acid in water/acetonitrile (95:5); solvent B, 0.1% trifluoroacetic acid in water/acetonitrile (5:95). Gradient elution was as follows: 100:0 (A/B) to 0:100 (A/B) over 8 min, 0:100 (A/B) for 1 min, then reversion back to 100:0 (A/B) over 1 min, 100:0 (A/B) for 2 min. The formation of the parent compound was evaluated and normalized by measuring the peak area at 214 nm and comparing it to the initial timepoint.
All prodrugs prepared were first tested for their inhibitory activity against NNMT using a biochemical enzymatic activity assay. […] Both these buffers and pHs have been used in the different biochemical and cellular assays described in this report. Compounds were dissolved in DMSO at a concentration of 40 mM and diluted with the respective buffer to a final concentration of 1 mM. Compound stability was then assessed by RP-HPLC directly (t0) and subsequently every 2 h over a time period of 16 h. […] Even for the rather labile methyl ester 12b, the TML group in 14b results in a decrease in hydrolysis of the methyl ester.

For data set [2], the target named is T1, NNMT (Homo sapiens, UniProt P40261).
T1 sequence (P40261 1-264): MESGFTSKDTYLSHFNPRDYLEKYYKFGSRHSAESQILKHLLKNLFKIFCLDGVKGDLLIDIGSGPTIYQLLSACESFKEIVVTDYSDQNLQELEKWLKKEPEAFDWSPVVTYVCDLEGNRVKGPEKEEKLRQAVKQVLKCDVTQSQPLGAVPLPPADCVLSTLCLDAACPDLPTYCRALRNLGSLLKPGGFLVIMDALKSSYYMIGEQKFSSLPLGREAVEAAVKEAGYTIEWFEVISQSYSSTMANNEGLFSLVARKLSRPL
In words: Cellular MNA in HMEC-1 cells (Figure S1). Format: cell-based. Set-up: concentrations in endothelial HMEC-1 cells after 24-hour incubation; endogenous in cells; host or cells: HMEC-1 endothelial cells. The settings on record: 10 µM, 24-hour incubation. Here is the method: The following are available online at https://www.mdpi.com/article/10.3390/biom11091357/s1, Figure S1: cellular MNA data in HMEc-1 cells treated with 10 µM reference inhibitors or prodrugs; ^1H and ^13C NMR spectra of compounds 3e, 4c–e, 8a, 11b–f, 12b–f, 13a–c, 13e, 14a–f.
Figure S1. 1-methylnicotinamide (MNA) concentrations in endothelial HMEC-1 cells after 24-hour incubation
with 10 µM of reference compounds 5-amino-methylquinolinium (5-MQ), 6-methylamino-nicotinamide (6-
MANA), parent compound GYZ-319 or prodrug compounds 12b-f and 14a-e. […]

Another data set has as its system pig liver esterase (PLE). In words: Esterase-mediated hydrolysis to the parent compound (RP-HPLC). Format: in vitro ADME. Here is the method: The conversion of the prodrugs to the parent compound by esterases was evaluated using pig liver esterase (PLE, 18 U/mg, Sigma-Aldrich, St. Louis, MO, USA) in PBS at pH 7.4. Compounds were dissolved in DMSO at 40 mM, diluted to a final concentration of 2 mM with PBS, and added to an equal volume of a 10 mg/mL solution of PLE in PBS (pH 7.4), resulting in final concentrations of 2.5% DMSO, 1 mM compound, and 5 mg/mL PLE. At different time-points 50 µL aliquots were taken, added to 100 µL acetonitrile to precipitate the proteins, and centrifuged for 5 min at 10,000 rpm. The supernatant was subsequently analyzed by HPLC as described in Section 2.2 above.
The next step was to establish whether compounds 12e and 14e are converted to the parent compound in the presence of an esterase.

In data set [3] the target is T1, NNMT. In words: 1-Methylnicotinamide (MNA) quantification in A549 cells (LC-MS). The settings on record: A549 lung carcinoma cells; 0.1–100 µM; 24-h treatment (Figure 4).
Procedure: Human lung adenocarcinoma line (A549, ATCC, Manassas, VA, USA) was cultured according to the provider’s indications and seeded in 6-well format. […] After incubation, effluent samples were taken and frozen (−80 °C) for further MNA measurement. Cells also were collected, centrifuged (2 × 500 G/5 min.), and frozen both for the measurement of intracellular MNA and for BCA protein assay.
The quantification of 1-methylnicotinamide (MNA), nicotinamide (NA), nicotinic acid (NicA), 1-methyl-2-pyridone-5-carboxamide (Met-2Pyr), and 1-methyl-4-pyridone-5-carboxamide (Met-4Pyr) was performed by applying ultra-high pressure liquid chromatography coupled to tandem mass spectrometry (UPLC-MS) according to the methodology previously described with minor modifications [35]. A UPLC-MS system comprised of a UPLC Ultimate 3000 (Dionex, Thermo Scientific, Waltham, MA, USA) connected to a TSQ Quantum Ultra mass spectrometer (Thermo Scientific, Waltham, MA, USA) equipped with a heated electrospray ionization interface (HESI-II Probe, Waltham, MA, USA) was used. Chromatographic separation of analytes was carried out on an Aquasil C18 analytical column (4.6 mm × 150 mm, 5 mm; Thermo Scientific, Waltham, MA, USA) under isocratic elution using acetonitrile with 0.1% of formic acid (A) and 5 mM ammonium formate in water (B) as mobile phases delivered at the flow rate of 0.8 mL/min (A:B, 80:20, v/v). The cell pellet was resuspended in 60 µL of deionized water and 50 µL of suspension was transferred to a fresh test tube. An amount of 50 µL of effluent sample was used for the measurement of extracellular MNA. The internal standard (IS) containing MNA-d3 was added to each sample (5 µL) obtaining the final concentration of 500 ng/mL. After the sample mixing, the proteins were precipitated using 100 μL of acidified acetonitrile (0.1% of formic acid), and samples were mixed (10 min), cooled at 4 °C (15 min), and finally centrifuged (15,000× g, 15 min, 4 °C). A clear supernatant was transferred to a chromatographic vial and directly injected (5 µL) into UPLC-MS system. […] The concentration of MNA was calculated based on the calibration curve plotted for the analyte as the relationship between the peak area ratios of analyte/IS to the nominal concentration of the analyte. The concentration of analytes was normalized to milligram of proteins, which was assessed using a Pierce^TM BCA Protein Assay Kit (Thermo Fisher, Waltham, MA, USA) and a Synergy4 multiplate reader (BioTek, Winooski, VT, USA). […]
Using this assay, the levels of MNA produced by NNMT in an A549 lung carcinoma cell line can be quantified by means of a sensitive LC-MS method.
For data set [4], the system named is A549 human lung cancer line. Briefly: MTT cell viability assay, A549. It counts as cell-based. On the procedure:
(§1) HSC-2 human oral cancer cell line, T24 human bladder cancer cell line, and A549 human lung cancer line were cultured in DMEM/F12 medium and supplemented with 10% fetal bovine serum and 50 μg/mL gentamicin at 37 °C in a humidified 5% CO2 incubator. For each compound tested, powder was dissolved in DMSO at 100 mM concentration. This stock solution was then diluted in culture medium to final concentration values ranging between 1 µM and 100 µM. For each sample, DMSO was kept constant at 0.1% final concentration. The day before starting treatment, cells were seeded in 96-well plates, at a density of 2000 cells/well. Cells were allowed to attach overnight and then incubated with compounds at different concentrations, or with DMSO only, for 24, 48, and 72 h. All experiments were performed in triplicate.
(§2) Cell proliferation was determined using a colorimetric assay with 3-(4,5-dimethylthiazol-2-yl)-2,5-diphenyl tetrazolium bromide (MTT). The MTT assay measures the conversion of MTT to insoluble formazan by dehydrogenase enzymes of the intact mitochondria of living cells. Cell proliferation was evaluated by measuring the conversion of the tetrazolium salt MTT to formazan crystals upon treatment with compounds or DMSO only for 24, 48, and 72 h. Briefly, cells were incubated for 2 h at 37 °C with 100 µL fresh culture medium containing 5 µL of MTT reagent (5 mg/mL in PBS). The medium was removed and 200 µL isopropanol were added. The amount of formazan crystals formed correlated directly with the number of viable cells. The reaction product was quantified by measuring the absorbance at 540 nm using a plate reader. Experiments were repeated three times. Results were expressed as a percentage of the control (the control equals 100% and corresponds to the absorbance value of each sample at time zero) and presented as mean values ± standard deviation of three independent experiments performed in triplicate.

Data set [5] relates to HSC-2 human oral cancer cell line. Briefly: MTT cell viability assay, HSC-2. It counts as cell-based. Here is the method:
as §1, §2

The test system of data set [6] is T24 human bladder cancer cell line. Briefly: MTT cell viability assay, T24. It counts as cell-based. On the procedure:
as §1, §2
(In general: Formazan colour is commonly taken as a measure of viable cells.)

A short description of data set [7]: Aqueous solubility (observation). It counts as physicochemical.
Another data set concerns human cancer cell lines. Set-up: method as in PMID 34424711. The settings on record: range of human cancer cell lines; highest concentration tested 100 µM; cited from earlier work.

Structures are written as SMILES. Some results are limits rather than exact numbers.

On to `CC(=O)Oc1cc(C)cc(C)c1C(C)(C)CC(=O)N[C@@H](CCN(C/C=C/c1ccc(C#N)cc1)C[C@H]1O[C@@H](n2cnc3c(N)ncnc32)[C@H](O)[C@@H]1O)C(=O)O` [Compound 14a, (S)-2-(3-(2-acetoxy-4,6-dimethylphenyl)-3-methylbutanamido)-4-((((2R,3S,4R,5R)-5-(6-amino-9H-purin-9-yl)-3,4-dihydroxytetrahydrofuran-2-yl)methyl)((E)-3-(4-cyanophenyl)allyl)amino)butanoic acid], for which, in data set [1], the “percentage of compound peak area present after 16 h of incubation, PBS” value worked out at 99.10%; the “hydrolytic stability in buffer (in words)” value is “most stable”; the “percentage of compound peak area present after 16 h of incubation, Tris” value worked out at 93.97%. The “cellular activity (MNA concentration) compared to parent compound” value at NNMT [2] was “not to improve the cellular activity of the parent compound”.
`CC(=O)Oc1cc(C)cc(C)c1C(C)(C)CC(=O)N[C@@H](CCN(C/C=C/c1ccc(C#N)cc1)C[C@H]1O[C@@H](n2cnc3c(N)ncnc32)[C@H](O)[C@@H]1O)C(=O)OC(C)C` [Compound 14e, Isopropyl-(S)-2-(3-(2-acetoxy-4,6-dimethylphenyl)-3-methylbutanamido)-4-((((2R,3S,4R,5R)-5-(6-amino-9H-purin-9-yl)-3,4-dihydroxytetrahydrofuran-2-yl)methyl)((E)-3-(4-cyanophenyl)allyl)amino)butanoate]: the “time to full conversion to the parent compound” value in the data set with pig liver esterase (PLE) (5 mg/mL PLE, PBS pH 7.4, 1 mM compound) was at most 4 h. For the same compound, the “hydrolysis in the absence of PLE” value in the data set with pig liver esterase (PLE) (PBS pH 7.4, without PLE) was “no hydrolysis was observed”. Moreover, the “percentage of compound peak area present after 16 h of incubation, PBS” value in data set [1] stood at 91.13%. The “hydrolytic stability in buffer (in words)” value in data set [1] was “most stable”. The “percentage of compound peak area present after 16 h of incubation, Tris” value in [1] turned out to be 87.69%. Further, on NNMT [3], the “effect on cellular MNA levels” value is “even further enhanced”. Moreover, the “effect on cell viability (MTT)” value in data set [4] (100 µM, 24, 48 and 72 h) is “time dependent reduction in cell viability”; in [4] (1 and 10 µM, 24, 48 and 72 h) it was “no effects”; in [5] (100 µM, 24, 48 and 72 h), “time dependent reduction in cell viability”; in data set [5] (1 and 10 µM, 24, 48 and 72 h) it was “no effects”; in [6] (100 µM, 24, 48 and 72 h), “time dependent reduction in cell viability”; in [6] (1 and 10 µM, 24, 48 and 72 h) it was “no effects”.
With `CC(=O)Oc1cc(C)cc(C)c1C(C)(C)CC(=O)N[C@@H](CCN(C/C=C/c1ccc(C#N)cc1)C[C@H]1O[C@@H](n2cnc3c(N)ncnc32)[C@H](O)[C@@H]1O)C(=O)OCc1ccccc1` [Compound 14f, Benzyl-(S)-2-(3-(2-acetoxy-4,6-dimethylphenyl)-3-methylbutanamido)-4-((((2R,3S,4R,5R)-5-(6-amino-9H-purin-9-yl)-3,4-dihydroxytetrahydrofuran-2-yl)methyl)((E)-3-(4-cyanophenyl)allyl)amino)butanoate], the aqueous solubility result in data set [7] was “poor aqueous solubility”.
Consider `N#Cc1ccc(/C=C/CN(CC[C@H](N)C(=O)O)C[C@H]2O[C@@H](n3cnc4c(N)ncnc43)[C@H](O)[C@@H]2O)cc1` [GYZ-319], for which the antiproliferative effects result with human cancer cell lines is recorded as “only showed significant antiproliferative effects at the highest concentration tested of 100 µM”. On NNMT [3], the “effect on cellular MNA levels” value was “high concentrations of both 6-MANA and GYZ-319 are required to substantially decrease the levels of MNA”. The “effect on cell viability (MTT)” value in [4] (1 and 10 µM, 24, 48 and 72 h) is “no effects”; in [5] (1 and 10 µM, 24, 48 and 72 h) it was “no effects”; in data set [6] (1 and 10 µM, 24, 48 and 72 h) it was “no effects”.
